Source: publication PMC9038691, “A structural exposé of noncanonical molecular reactivity within the protein tyrosine phosphatase WPD loop” (Nature communications, 2022)
Values belong to the compound of their own block, whether it stands above or below them.

What was measured:
[1] = target: T1, AtPFA-DSP1^49–215 (Arabidopsis thaliana, UniProt Q9ZVN4, C150S); experiment: X-ray crystal structure (soak); assay type: binding; conditions: active site
T1 construct: core catalytic domain, residues 49-215; N-terminal 6xHis-MBP tag cut with TEV protease; E. coli; monomer in solution

[2] = target: T2, AtPFA-DSP1 (full-length) (Arabidopsis thaliana, UniProt Q9ZVN4); experiment: malachite green Pi release; assay type: biochemical; conditions: pH 7.2, 30 °C, 100 mM KCl, 0.8 mM MgCl2
T2 construct: full-length (codon-optimized cDNA, Genscript); pDest-566, N-terminal 6xHis-MBP tag cut with TEV protease; E. coli
T2 sequence (Q9ZVN4 whole entry): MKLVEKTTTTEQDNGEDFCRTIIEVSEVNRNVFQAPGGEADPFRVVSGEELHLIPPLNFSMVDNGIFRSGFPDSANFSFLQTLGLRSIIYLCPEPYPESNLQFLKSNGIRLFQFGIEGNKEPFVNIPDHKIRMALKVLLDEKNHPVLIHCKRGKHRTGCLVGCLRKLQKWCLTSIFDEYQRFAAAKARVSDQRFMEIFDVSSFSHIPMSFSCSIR

T1 sequence (Q9ZVN4 49-215 C150S): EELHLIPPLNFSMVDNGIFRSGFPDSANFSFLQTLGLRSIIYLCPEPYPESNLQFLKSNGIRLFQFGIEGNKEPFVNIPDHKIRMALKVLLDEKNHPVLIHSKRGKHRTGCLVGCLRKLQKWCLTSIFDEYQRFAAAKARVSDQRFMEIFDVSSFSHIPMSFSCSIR

Structure (SMILES): O=P(O)(O)O[C@H]1[C@@H](OP(=O)(O)O)[C@H](OP(=O)(O)O)[C@@H](OP(=O)(O)OP(=O)(O)O)[C@H](OP(=O)(O)O)[C@H]1OP(=O)(O)O [5-InsP7, 5-diphosphoinositol 1,2,3,4,6-pentakisphosphate]
- X-ray crystal structure (soak) ([1]; substrate-trapping mutant, displaces Pi): it could now be successfully substituted by 5-InsP7

Structure (SMILES): O=P(O)(O)O[C@@H]1[C@@H](OP(=O)(O)OP(=O)(O)O)[C@H](OP(=O)(O)O)[C@@H](OP(=O)(O)O)[C@@H](O)[C@H]1OP(=O)(O)O [5-PP-InsP4, 5-diphosphoinositol 1,3,4,6-tetrakisphosphate]
- X-ray crystal structure (soak) ([1]; beta-IN and beta-OUT poses, the latter together with Pi): instructive crystals of AtPFA-DSP1 in complex with 5-PP-InsP4

- Km [2]: (c), 6-InsP7
Structure (SMILES): O=P(O)(O)O[C@H]1[C@@H](OP(=O)(O)O)[C@@H](OP(=O)(O)O)[C@H](OP(=O)(O)OP(=O)(O)O)[C@@H](OP(=O)(O)O)[C@@H]1OP(=O)(O)O [6-InsP7, 6-diphosphoinositol 1,2,3,4,5-pentakisphosphate]
